Experimental data taken from ChEMBL document CHEMBL1909046, “DrugMatrix in vitro pharmacology data”.

Columns and labels:
[1] = biological target: Glycine receptor (Rattus norvegicus, UniProt P22771+P24524+P07727+P20781); assay type: cell membranes, Wistar, Spinal cord, Membrane; also: in other assays of this panel Not Active means under 50% inhibition at 10 µM
[2] = biological target: T1, C-X-C chemokine receptor type 2 (Homo sapiens, UniProt P25025); assay type: cell membranes, Membrane; settings: cho-k1; also: in other assays of this panel Not Active means under 50% inhibition at 10 µM
T1 sequence (P25025 whole entry): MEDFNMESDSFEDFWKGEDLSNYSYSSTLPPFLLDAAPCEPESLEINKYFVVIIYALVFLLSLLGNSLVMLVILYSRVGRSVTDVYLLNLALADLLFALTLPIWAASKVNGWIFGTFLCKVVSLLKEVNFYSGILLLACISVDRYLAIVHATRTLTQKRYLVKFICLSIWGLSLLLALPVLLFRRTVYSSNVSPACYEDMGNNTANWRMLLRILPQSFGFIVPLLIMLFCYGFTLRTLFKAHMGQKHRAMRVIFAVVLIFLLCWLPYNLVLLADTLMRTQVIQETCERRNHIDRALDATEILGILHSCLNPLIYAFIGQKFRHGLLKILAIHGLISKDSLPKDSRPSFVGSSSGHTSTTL

[3] = DRUGMATRIX: Calcium Channel Type L, Dihydropyridine radioligand binding (ligand: [3H] Nitrendipine); assay type: cell membranes, Rattus norvegicus, Wistar, Cerebral cortex, Membrane; settings: Not Active = under 50% inhibition at 10 µM
[4] = biological target: T2, Calcitonin receptor (Homo sapiens, UniProt P30988); assay type: cell membranes, Membrane; settings: t47d; also: in other assays of this panel Not Active means under 50% inhibition at 10 µM
T2 sequence (P30988 whole entry): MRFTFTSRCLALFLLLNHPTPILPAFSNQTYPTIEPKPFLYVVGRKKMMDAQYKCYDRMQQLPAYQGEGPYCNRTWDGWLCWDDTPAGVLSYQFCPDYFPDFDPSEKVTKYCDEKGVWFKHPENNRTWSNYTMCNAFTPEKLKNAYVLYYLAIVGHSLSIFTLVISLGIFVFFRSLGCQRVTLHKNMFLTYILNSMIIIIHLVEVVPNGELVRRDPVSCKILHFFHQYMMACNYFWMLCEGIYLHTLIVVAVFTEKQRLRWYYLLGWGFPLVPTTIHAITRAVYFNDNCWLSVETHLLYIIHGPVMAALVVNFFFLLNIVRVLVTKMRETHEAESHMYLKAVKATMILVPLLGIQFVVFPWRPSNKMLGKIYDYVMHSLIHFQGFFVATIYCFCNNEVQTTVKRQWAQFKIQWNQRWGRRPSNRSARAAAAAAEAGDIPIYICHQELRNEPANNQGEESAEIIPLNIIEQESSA

[5] = biological target: Platelet-activating factor receptor (Homo sapiens, UniProt P25105); assay type: tissue-based; also: in other assays of this panel Not Active means under 50% inhibition at 10 µM
[6] = biological target: Melanocortin receptor 3 (Homo sapiens, UniProt P41968); assay type: cell membranes, Membrane; settings: hek293; also: in other assays of this panel Not Active means under 50% inhibition at 10 µM
[7] = DRUGMATRIX: Atrial Natriuretic Factor (ANF) radioligand binding (ligand: [125I] ANF (rat)); assay type: cell membranes, Cavia porcellus, Dunkin-Hartley, Adrenal gland, Membrane; settings: Not Active = under 50% inhibition at 10 µM
[8] = biological target: T3, Nitric oxide synthase, inducible (Mus musculus, UniProt P29477); set-up: species or system Escherichia coli
T3 sequence (P29477 whole entry): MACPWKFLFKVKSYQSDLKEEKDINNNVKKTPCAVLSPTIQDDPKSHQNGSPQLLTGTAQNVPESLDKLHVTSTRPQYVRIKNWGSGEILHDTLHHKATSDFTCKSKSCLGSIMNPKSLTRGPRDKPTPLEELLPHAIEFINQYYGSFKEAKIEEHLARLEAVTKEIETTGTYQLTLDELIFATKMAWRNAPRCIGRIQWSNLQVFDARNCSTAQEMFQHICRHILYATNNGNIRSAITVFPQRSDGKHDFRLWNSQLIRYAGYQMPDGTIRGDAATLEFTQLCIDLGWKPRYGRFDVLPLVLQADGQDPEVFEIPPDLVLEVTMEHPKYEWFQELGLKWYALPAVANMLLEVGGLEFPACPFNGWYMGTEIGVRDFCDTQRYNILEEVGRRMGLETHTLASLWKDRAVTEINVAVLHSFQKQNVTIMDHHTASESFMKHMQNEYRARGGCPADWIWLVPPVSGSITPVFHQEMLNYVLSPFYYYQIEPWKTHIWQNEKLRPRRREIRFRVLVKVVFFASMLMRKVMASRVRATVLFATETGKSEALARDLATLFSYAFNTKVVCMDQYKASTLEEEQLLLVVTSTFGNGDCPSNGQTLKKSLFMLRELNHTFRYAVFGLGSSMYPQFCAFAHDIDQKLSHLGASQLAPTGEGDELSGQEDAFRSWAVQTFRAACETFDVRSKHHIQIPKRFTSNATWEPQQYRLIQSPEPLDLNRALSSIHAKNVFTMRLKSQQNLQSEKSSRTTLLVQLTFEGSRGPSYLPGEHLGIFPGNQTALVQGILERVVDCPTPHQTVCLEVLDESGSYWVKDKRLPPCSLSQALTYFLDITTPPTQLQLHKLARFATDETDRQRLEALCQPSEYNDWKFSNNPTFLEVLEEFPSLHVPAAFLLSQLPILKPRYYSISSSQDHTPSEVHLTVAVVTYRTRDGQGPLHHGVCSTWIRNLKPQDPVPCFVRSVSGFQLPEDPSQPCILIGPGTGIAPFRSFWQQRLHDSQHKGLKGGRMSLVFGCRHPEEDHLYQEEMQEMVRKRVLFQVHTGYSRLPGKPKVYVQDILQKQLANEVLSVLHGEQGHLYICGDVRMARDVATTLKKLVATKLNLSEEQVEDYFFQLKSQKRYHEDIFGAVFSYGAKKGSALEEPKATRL

Platelet-activating factor receptor, sequence (P25105 whole entry): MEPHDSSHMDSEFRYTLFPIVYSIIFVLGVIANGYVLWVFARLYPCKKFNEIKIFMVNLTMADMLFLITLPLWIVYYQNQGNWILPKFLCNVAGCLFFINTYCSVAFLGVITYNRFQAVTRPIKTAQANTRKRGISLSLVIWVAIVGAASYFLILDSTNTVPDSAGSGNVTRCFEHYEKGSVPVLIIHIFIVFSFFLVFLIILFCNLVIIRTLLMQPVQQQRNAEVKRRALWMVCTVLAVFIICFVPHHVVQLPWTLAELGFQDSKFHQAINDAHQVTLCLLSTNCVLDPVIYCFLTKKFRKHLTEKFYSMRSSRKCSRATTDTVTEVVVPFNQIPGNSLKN
Melanocortin receptor 3, sequence (P41968 whole entry): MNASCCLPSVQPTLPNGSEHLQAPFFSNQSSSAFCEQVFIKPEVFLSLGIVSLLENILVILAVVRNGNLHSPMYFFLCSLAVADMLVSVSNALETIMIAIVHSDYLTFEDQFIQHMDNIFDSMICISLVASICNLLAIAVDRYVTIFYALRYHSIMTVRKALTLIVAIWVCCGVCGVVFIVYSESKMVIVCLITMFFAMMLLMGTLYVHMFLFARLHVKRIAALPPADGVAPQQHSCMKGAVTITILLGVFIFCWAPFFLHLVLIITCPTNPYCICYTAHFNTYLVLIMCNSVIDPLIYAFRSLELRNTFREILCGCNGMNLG

Structure (SMILES)	IC50 [1]	IC50 [2]	IC50 ([3]; read-out: IC50)	Ki ([3]; read-out: Ki)	IC50 [4]	IC50 [5]	IC50 [6]	IC50 [7]	Ki [7]	IC50 [8]	IC50 [3]	Ki [3]
CCOC(=O)C1=C(C)NC(C)=C(C(=O)OC)C1c1cccc([N+](=O)[O-])c1 (stereo not given) [NITRENDIPINE]	Not Active	Not Active	0.383 nM	0.246 nM	Not Active	Not Active	Not Active	Not Active	Not Active	Not Active		
C#C[C@]1(OC(C)=O)CC[C@H]2[C@@H]3CCC4=CC(=O)CC[C@@H]4[C@H]3CC[C@@]21C [NORETHINDRONE ACETATE]	Not Active	Not Active			Not Active	Not Active	Not Active	Not Active	Not Active	Not Active	Not Active	Not Active
COc1ccc2[nH]c([S+]([O-])Cc3ncc(C)c(OC)c3C)nc2c1 (stereo not given) [OMEPRAZOLE]	Not Active	Not Active			Not Active	Not Active	Not Active	Not Active	Not Active	Not Active	Not Active	Not Active
Cc1nccn1CC1CCc2c(c3ccccc3n2C)C1=O (stereo not given) [ONDANSETRON]	Not Active	Not Active			Not Active	Not Active	Not Active	Not Active	Not Active	Not Active	Not Active	Not Active
CCn1cc(C(=O)O)c(=O)c2cc(F)c(N3CCN(C)CC3)cc21 [PEFLOXACIN]	Not Active	Not Active			Not Active	Not Active	Not Active	Not Active	Not Active	Not Active	Not Active	Not Active
CCCCOc1ccc(OCCCN2CCOCC2)cc1 [PRAMOXINE]	Not Active	Not Active			Not Active	Not Active	Not Active	Not Active	Not Active	Not Active	Not Active	Not Active
O=C(C1CCCCC1)N1CC(=O)N2CCc3ccccc3C2C1 (stereo not given) [PRAZIQUANTEL]	Not Active	Not Active			Not Active	Not Active	Not Active	Not Active	Not Active	Not Active	Not Active	Not Active
CCN(CC)CCOC(=O)c1ccc(N)cc1 [PROCAINE]	Not Active	Not Active			Not Active	Not Active	Not Active	Not Active	Not Active	Not Active	Not Active	Not Active
CCCN(CCC)C(=O)C(CCC(=O)O)NC(=O)c1ccccc1 (stereo not given) [PROGLUMIDE]	Not Active	Not Active			Not Active	Not Active	Not Active	Not Active	Not Active	Not Active	Not Active	Not Active
NC(=O)c1cnccn1 [PYRAZINAMIDE]	Not Active	Not Active			Not Active	Not Active	Not Active	Not Active	Not Active	Not Active	Not Active	Not Active
